Data taken from patent US12116333B1, “3,3'-(hydrazine-1,2-diyl)bis(1-(naphthalen-2-yloxy)propan-2-ol) as an ecofriendly insecticidal agent against spodoptera littoralis (boisd.)” (KING FAISAL UNIVERSITY, priority 2023, dated 2024).
≈ marks a conversion by molar mass, not a printed value.

System: Spodoptera littoralis
Assay: Insecticidal bioassay screening (castor leaf dip) against 2nd and 4th instar larvae
Format: in vivo
Conditions: for Toxic ratio: 72 h, fenoxycarb's LC50/compound's LC50 ×100
Description: Five concentrations (200, 100, 50, 25, 12.5 ppm) were designed for this synthetic compound and the reference fenoxycarb compound as the dynamic ingredients based on ppm via diluting the commercial formulation.
In this experiment, castor leaves were immersed in each of the previously prepared concentrations of the components for 10 seconds and then left to dry for 60 minutes.
Larvae of the second and fourth instars of each checked strain were prepared with treated leaves in gauze-covered glass containers for 72 hrs. An untreated control was made in which leaves were dipped in triton x-100 and distilled water only. Then, the preserved leaves were removed & fresh, untreated leaves were provided for 72 hours. Three replicates (10 larvae each) were checked for each concentration. Daily inspection was carried out for all treatments and mortality percentages were recorded 3 days (72 hours) after treatment. The average mortality percentage was corrected employing Abbott's formula. The corrected mortality rate for each of the previously synthesized compounds was statistically calculated according to Finney (1970). Through this rate, the corresponding concentration test lines (LDP lines) were assessed. Fifty and ninety percent mortality was determined, and the regression values for the checked products were previously evaluated.

`CCOC(=O)NCCOc1ccc(Oc2ccccc2)cc1` [Fenoxycarb] showed an LC50 (2nd instar larvae of S. littoralis, after 72 h of treatment) of 2.73 ppm, a Toxic ratio (2nd instar larvae) of 100 and an LC50 (4th instar larvae of S. littoralis, after 72 h of treatment) of 43.231 ppm. The Toxic ratio (4th instar larvae) was 1 and the LC50 (Spodoptera littoralis, foliar) was 2.73 µg/mL (≈ 9.06 µM).
